Assays:
PDE10 from pig striatum = PDE10 from pig striatum (Sus scrofa, UniProt A0A287B941); assay: Inhibition of PDE10 from pig striatum ([3H]-cAMP SPA, Methods A and B); type: biochemical; settings: PDE10 pig
Description: Striatum from male Wistar rats (180-200 g), male hybrid pigs (150 kg) and male guinea pigs (CRL (HA), 500 g) respectively were collected and frozen at −70° C. At the day of preparation 0.5 g striatum was homogenised in 10 ml 50 mM Tris/Mg-buffer at 4° C. and centrifuged for one hour at 100000 g. The supernatant is called the cytosolic fraction and was removed and stored on ice. The pellet was resuspended in the same buffer, but containing 1% Triton and incubated for 45 min at 4° C. Both fractions were independently applied onto a 5 ml Hi Trap™ QHP column at the Äkta-FPLC. After washing the columns the bound PDE protein was eluted with an increasing sodium chloride gradient (0 mM-500 mM sodium chloride) in 50 mM Tris/Mg-buffer at 4° C. for the cytosolic fraction and in the presence of 1% Triton for the membrane fraction. […] The fractions with PDE10-activity were pooled and frozen in aliquots until use at −20° C. PDE10 activity was determined in a one step procedure in microtiter plates. […] Nonspecific activity was tested without the enzyme. The reaction was initiated by addition of the substrate solution and was carried out at 37° C. for 30 minutes. Enzymatic activity was stopped by addition of 25 μl YSi-SPA-beads (Amersham-Pharmacia). One hour later the mixture was measured in a liquid scintillation counter for microtiter plates (Microbeta Trilux). To pipette the incubation mixture a robot Biomek (Fa. Beckman) is used. […] For determination of IC50 values the Hill-plot, 2-parameter-model, was used. […] Striatum from male hybrid pigs (150 kg) were collected and frozen at −70° C. At the day of preparation 0.5 g striatum was homogenised in 10 ml 50 mM Tris/Mg-buffer at 4° C. and centrifuged for one hour at 100000 g. The supernatant was removed and the pellet was resuspended in the same buffer, but containing 1% Triton and incubated for 45 min at 4° C. The membrane fraction was applied onto a 5 ml Hi Trap™ QHP column at the Äkta-FPLC. After washing the column the bound PDE protein was eluted with an increasing sodium chloride gradient (0 mM-500 mM sodium chloride) in 50 mM Tris/Mg-buffer at 4° C. in the presence of 1% Triton. […] The fractions with PDE10-activity were pooled and frozen in aliquots until use at −20° C. PDE10 activity was determined in a one step procedure in microtiterplates. […] Nonspecific activity was tested without the enzyme. The reaction was initiated by addition of the substrate solution and was carried out at 37° C. for 30 minutes. Enzymatic activity was stopped by addition of 25 μl YSi-SPA-beads (Amersham-Pharmacia). One hour later the mixture was measured in a liquid scintillation counter for microtiterplates (Microbeta Trilux). To pipette the incubation mixture a robot Biomek (Fa. Beckman) is used. […] For determination of IC50 values the Hill-plot, 2-parameter-model, was used.

human recombinant PDE10A = target: T1, human recombinant PDE10A (Homo sapiens, UniProt Q9Y233); assay: Inhibition of human recombinant PDE10A ([3H]-cAMP SPA, Method B); type: biochemical; settings: read-out: PDE10 inhibition IC50 [nM] PDE10A human
T1 construct: made in house; host or cells: SF21 insect cells (baculovirus)
Description: The gene was than inserted into a baculovirus vector, ligated with the baculovirus DNA. The enzyme-protein was expressed in SF21-cells. The enzyme was isolated from these cells by harvesting the cells by a centrifugation at 200 g to collect the cells. The cells were resuspended in 50 mM Tris-HCl/5 mM MgCl2 buffer (pH=7.4) and lysed by a sonication of the cells. The cytosolic PDE10A was obtained by a centrifugation at 48000 g for 1 h in the supernatant and stored at −70° C. PDE10 activity was determined in a one step procedure in microtiterplates. […] Nonspecific activity was tested without the enzyme. The reaction was initiated by addition of the substrate solution and was carried out at 37° C. for 30 minutes. Enzymatic activity was stopped by addition of 25 μl YSi-SPA-beads (Amersham-Pharmacia). One hour later the mixture was measured in a liquid scintillation counter for microtiterplates (Microbeta Trilux). To pipette the incubation mixture a robot Biomek (Fa. Beckman) is used. […] For determination of IC50 values the Hill-plot, 2-parameter-model, was used.

T1 sequence (Q9Y233 1-779 isoform Q9Y233-1): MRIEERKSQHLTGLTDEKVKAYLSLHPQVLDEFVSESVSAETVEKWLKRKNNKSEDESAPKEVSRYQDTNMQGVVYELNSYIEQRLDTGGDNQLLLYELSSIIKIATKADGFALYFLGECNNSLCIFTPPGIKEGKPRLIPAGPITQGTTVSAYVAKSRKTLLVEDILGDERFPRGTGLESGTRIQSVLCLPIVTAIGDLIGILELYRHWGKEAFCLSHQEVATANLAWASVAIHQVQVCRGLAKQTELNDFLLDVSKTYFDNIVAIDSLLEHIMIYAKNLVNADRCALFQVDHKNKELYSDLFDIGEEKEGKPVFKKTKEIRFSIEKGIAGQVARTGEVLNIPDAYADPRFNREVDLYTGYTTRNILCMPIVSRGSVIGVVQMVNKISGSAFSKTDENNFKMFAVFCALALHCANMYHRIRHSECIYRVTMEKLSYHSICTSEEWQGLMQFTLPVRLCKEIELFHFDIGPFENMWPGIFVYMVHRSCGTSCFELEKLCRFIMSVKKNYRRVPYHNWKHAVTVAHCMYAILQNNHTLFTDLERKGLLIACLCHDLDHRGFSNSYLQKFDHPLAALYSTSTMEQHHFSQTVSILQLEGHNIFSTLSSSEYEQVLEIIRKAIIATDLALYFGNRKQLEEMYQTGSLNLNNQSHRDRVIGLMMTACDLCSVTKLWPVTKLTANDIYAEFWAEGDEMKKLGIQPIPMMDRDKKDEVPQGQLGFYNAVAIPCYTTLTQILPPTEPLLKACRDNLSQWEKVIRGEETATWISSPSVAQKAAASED

Structure (SMILES) | IC50 (PDE10 from pig striatum) [nM] | melting point [°C] | IC50 (human recombinant PDE10A) [nM]
CCc1nc(C)c2c(N)nc3ccccc3n12 [Example 3, 1-Ethyl-3-methyl-imidazo(1,5-a)quinoxalin-4-ylamine] | ≥ 100 | 192 to 195 | 
CCCc1nc(C)c2c(N)nc3ccccc3n12 [Example 4, 3-Methyl-1-propyl-imidazo(1,5-a)quinoxalin-4-ylamine] | ≥ 100 | 187 to 188 | 
CCc1nc(C)c2c(N)nc3ccc(F)cc3n12 [Example 5, 1-Ethyl-8-fluoro-3-methyl-imidazo(1,5-a)quinoxalin-4-ylamine] | ≥ 100 | 238 to 239 | 
CCCc1nc(C)c2c(N)nc3ccc(F)cc3n12 [Example 6, 8-Fluoro-3-methyl-1-propyl-imidazo(1,5-a)quinoxalin-4-ylamine] | 10 to 100 | 240 to 243 | 
CCCc1nc(C)c2c(N)nc3ccc(OC)cc3n12 [Example 7, 8-Methoxy-3-methyl-1-propyl-imidazo(1,5-a)quinoxalin-4-ylamine] |  | 201 to 203 | 10 to 100
Cc1nc(C2CCCCC2)n2c1c(C)nc1ccc(Cl)cc12 [Example 10, 8-Chloro-1-cyclohexyl-3,4-dimethyl-imidazo(1,5-a)quinoxaline] | 10 to 100 | 228 to 234 | 
CCc1nc(C)c2c(C)nc3ccccc3n12 [Example 11, 3,4-Dimethyl-1-ethyl-imidazo(1,5-a)quinoxaline] | ≥ 100 | 123 to 125 | 
CCc1nc(C)c2c(C)nc3ccc(F)cc3n12 [Example 12, 3,4-Dimethyl-1-ethyl-8-fluoro-imidazo(1,5-a)quinoxaline] | ≥ 100 | 139 to 142 | 
CCCc1nc(C)c2c(C)nc3ccc(F)cc3n12 [Example 13, 3,4-Dimethyl-8-fluoro-1-propyl-imidazo(1,5-a)quinoxaline] | 10 to 100 | 140 to 144 | 
Cc1nc(C2CCCCC2)n2c1c(C)nc1ccc(F)cc12 [Example 14, 1-Cyclohexyl-3,4-dimethyl-8-fluoro-imidazo(1,5-a)quinoxaline] | 10 to 100 | 195 to 200 | 
CCCc1nc(C)c2c(C)nc3ccc(OC)cc3n12 [Example 16, 3,4-Dimethyl-8-methoxy-1-propyl-imidazo(1,5-a)quinoxaline] |  | 99 to 101 | 10 to 100
CCc1nc(C)c2c(C)nc3ccc(N4CCCCC4)cc3n12 [Example 17, 3,4-Dimethyl-1-ethyl-8-(piperidin-1-yl)-imidazo(1,5-a)quinoxaline] | 10 to 100 | 132 to 134 | 
COc1ccc2nc(N)c3c(C)nc(C4CCCCC4)n3c2c1 [Example 38, 1-Cyclohexyl-8-methoxy-3-methyl-imidazo[1,5-a]quinoxalin-4-ylamine] |  | 211 to 212 | 10 to 100
CCCc1nc(C)c2c(N)nc3ccc(OCC4CC4)cc3n12 [Example 39, 8-Cyclopropylmethoxy-3-methyl-1-propyl-imidazo[1,5-a]quinoxalin-4-ylamine] |  | 163 to 167 | 10 to 100
Cc1nc(C2CCCCC2)n2c1c(N)nc1ccc(OCC3CC3)cc12 [Example 40, 1-Cyclohexyl-8-cyclopropylmethoxy-3-methyl-imidazo[1,5-a]quinoxalin-4-ylamine] | 10 to 100 | 241 to 242 | ≥ 100
COc1ccc2nc(C)c3c(C)nc(C4CCCCC4)n3c2c1 [Example 43, 1-Cyclohexyl-8-methoxy-3,4-dimethyl-imidazo[1,5-a]quinoxaline] |  | 165 to 169 | 10 to 100
CCCc1nc(C)c2c(C)nc3c(OCC(F)(F)F)cc(OCC(F)(F)F)cc3n12 [Example 46, 3,4-Dimethyl-1-propyl-6,8-bis-(2,2,2-trifluoro-ethoxy)-imidazo[1,5-a]quinoxaline] |  | 200 to 206 | ≥ 100

Structure (SMILES) | IC50 (PDE10 from pig striatum) [nM] | melting point [°C] | IC50 (human recombinant PDE10A) [nM]
CCCc1nc(C)c2c(C)nc3cc(OC)ccc3n12 [Example 48, 7-Methoxy-3,4-dimethyl-1-propyl-imidazo[1,5-a]quinoxaline] |  | 111 to 117 | 10 to 100
Cc1nc(-c2ccccc2Cl)n2c1c(C)nc1cc(OCc3c(F)cccc3F)ccc12 [Example 57, 1-(2-Chloro-phenyl)-7-(2,6-difluorobenzyloxy)-3,4-dimethyl-imidazo(1,5-a)quinoxaline] | ≤ 10 |  | 10 to 100
Cc1nc(-c2ccccc2Cl)n2c1c(C)nc1cc(OCc3ccc4ccccc4n3)ccc12 [Example 58, 1-(2-Chloro-phenyl)-7-(quinolin-2-ylmethoxy)-3,4-dimethyl-imidazo(1,5-a)quinoxaline] | ≤ 10 |  | ≤ 10
Cc1nc(-c2ccccc2Cl)n2c1c(C)nc1cc(OCc3cccc([N+](=O)[O-])c3)ccc12 [Example 59, 1-(2-Chloro-phenyl)-3,4-dimethyl-7-(3-nitrobenzyloxy)-imidazo(1,5-a)quinoxaline] | ≤ 10 |  | 10 to 100
Cc1nc(-c2ccccc2Cl)n2c1c(C)nc1cc(OCc3cccc(N)c3)ccc12 [Example 60, 7-(3-Aminobenzyloxy)-1-(2-chlorophenyl)-3,4-dimethyl-imidazo(1,5-a)quinoxaline] | ≤ 10 |  | 10 to 100
CNC(=O)Nc1cccc(COc2ccc3c(c2)nc(C)c2c(C)nc(-c4ccccc4Cl)n23)c1 [Example 61, N-1-{3-[1-(2-Chlorophenyl)-3,4-dimethyl-imidazo(1,5-a)quinoxalin-7-yloxymethyl]-phenyl}-N′-methyl-urea] | ≤ 10 |  | 10 to 100
CCc1nc(C)c2c(Cl)nc3ccccc3n12 [Intermediate B3] | 10 to 100 | 125 to 128 | 
CCCc1nc(C)c2c(Cl)nc3ccccc3n12 [Intermediate B4, 4-Chloro-3-methyl-1-propyl-imidazo(1,5-a)quinoxaline] | 10 to 100 | 99 to 101 | 
CCc1nc(C)c2c(Cl)nc3ccc(F)cc3n12 [Intermediate B5] | 10 to 100 | 157 to 160 | 
CCCc1nc(C)c2c(Cl)nc3ccc(F)cc3n12 [Intermediate B6, 4-Chloro-8-fluoro-3-methyl-1-propyl-imidazo(1,5-a)quinoxaline] | 10 to 100 | 133 to 135 | 
Cc1nc(C2CCCCC2)n2c1c(Cl)nc1ccc(F)cc12 [Intermediate B7, 4-Chloro-1-cyclohexyl-8-fluoro-3-methyl-imidazo(1,5-a)quinoxaline] | 10 to 100 | 205 to 210 | 
Cc1nc(C2CCCCC2)n2c1c(Cl)nc1ccc(Cl)cc12 [Intermediate B9, 4,8-Dichloro-1-cyclohexyl-3-methyl-imidazo(1,5-a)quinoxaline] | ≥ 100 | 244 to 248 | 
CCCc1nc(C)c2c(Cl)nc3ccc(N4CCCCC4)cc3n12 [Intermediate B10] | 10 to 100 | 105 to 108 | 
COc1ccc2nc(Cl)c3c(C)nc(C4CCCCC4)n3c2c1 [Intermediate B11] |  | 212 to 215 | 
Cc1nc(C2CCCCC2)n2c1c(Cl)nc1ccc(OCC3CC3)cc12 [Intermediate B13] |  | 165 to 168 | 
CCCc1nc(C)c2c(Cl)nc3cc(OC)ccc3n12 [Intermediate B15] |  | 154 to 159 | 

From patent publication US7875618B2, “Substituted imidazo[1,5-a]quinoxalines useful as inhibitors of phosphodiesterase 10 for the treatment of neurological and other disorders” (Wyeth, priority 2007, dated 2011)
